In the supplement of paper PMC13207355:

Experiments:
Details in all cases: exposure time: 72 h
[1] = test system: FT3469 (normal neural stem cell line); experiment: surviving fraction (nuclei count normalised to DMSO); higher = more cells surviving (less toxic)
[2] = test system: E57 (patient-derived glioblastoma stem cells of mesenchymal subtype); experiment: as above
[3] = test system: E31 (patient-derived glioblastoma stem cells of proneural subtype); experiment: as above
[4] = test system: E34 (patient-derived glioblastoma stem cells of proneural subtype); experiment: as above
[5] = test system: E28 (patient-derived glioblastoma stem cells of classical subtype); experiment: as above
[6] = test system: E21 (patient-derived glioblastoma stem cells of mesenchymal subtype); experiment: as above
[7] = test system: E13 (patient-derived glioblastoma stem cells of classical subtype); experiment: as above
[8] = test system: FT3469; experiment: phenotypic distance (Euclidean, principal components) from DMSO controls (arbitrary units); higher = stronger morphological change
[9] = test system: E57; experiment: as above
[10] = test system: E31; experiment: as above
[11] = test system: E34; experiment: as above
[12] = test system: E28; experiment: as above
[13] = test system: E21; experiment: as above
[14] = test system: E13; experiment: as above
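Wherever phenotypic distance (Euclidean, principal components) from DMSO controls is given: cell Painting imaging in 384-well plates, CellProfiler features reduced to at least 20 principal components, Euclidean distance versus same-plate DMSO vehicle wells (0.1% v/v), median over six images per well.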
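Wherever surviving fraction (nuclei count normalised to DMSO) is given: nuclei counted by high-content imaging of Hoechst-stained cells in laminin-coated 384-well plates, relative to 0.1% DMSO vehicle wells, with staurosporine as cell-death control.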

CC(C)(Oc1ccc(C2CC2(Cl)Cl)cc1)C(=O)O (stereo not drawn) [Ciprofibrate]
Details | phenotypic distance | surviving fraction
[1], 4.1 nM | – | 0.859
[1], 12.3 nM | – | 0.891
[1], 37 nM | – | 0.979
[1], 111.1 nM | – | 0.92
[1], 333.3 nM | – | 0.926
[1], 1000 nM | – | 0.886
[1], 3000 nM | – | 0.947
[2], 4.1 nM | – | 0.918
[2], 12.3 nM | – | 1.04
[2], 37 nM | – | 0.934
[2], 111.1 nM | – | 0.991
[2], 333.3 nM | – | 1.03
[2], 1000 nM | – | 0.983
[2], 3000 nM | – | 1.06
[3], 4.1 nM | – | 1.18
[3], 12.3 nM | – | 0.902
[3], 37 nM | – | 0.955
[3], 111.1 nM | – | 0.771
[3], 333.3 nM | – | 1.06
[3], 1000 nM | – | 0.889
[3], 3000 nM | – | 1.06
[4], 4.1 nM | – | 1.07
[4], 12.3 nM | – | 0.868
[4], 37 nM | – | 0.894
[4], 111.1 nM | – | 0.945
[4], 333.3 nM | – | 0.986
[4], 1000 nM | – | 0.988
[4], 3000 nM | – | 1.08
[5], 4.1 nM | – | 1.06
[5], 12.3 nM | – | 0.804
[5], 37 nM | – | 1.11
[5], 111.1 nM | – | 1.06
[5], 333.3 nM | – | 1.12
[5], 1000 nM | – | 1.02
[5], 3000 nM | – | 1.31
[6], 4.1 nM | – | 0.982
[6], 12.3 nM | – | 0.945
[6], 37 nM | – | 0.898
[6], 111.1 nM | – | 0.962
[6], 333.3 nM | – | 0.951
[6], 1000 nM | – | 1.01
[6], 3000 nM | – | 0.986
[7], 4.1 nM | – | 0.885
[7], 12.3 nM | – | 0.896
[7], 37 nM | – | 1.05
[7], 111.1 nM | – | 0.961
[7], 333.3 nM | – | 1.07
[7], 1000 nM | – | 1.13
[7], 3000 nM | – | 1
[8], 4.1 nM | 0.922 | –
[8], 12.3 nM | 0.62 | –
[8], 37 nM | 0.718 | –
[8], 111.1 nM | 0.814 | –
[8], 333.3 nM | 0.871 | –
[8], 1000 nM | 0.441 | –
[8], 3000 nM | 0.507 | –
[9], 4.1 nM | 0.79 | –
[9], 12.3 nM | 0.645 | –
[9], 37 nM | 0.985 | –
[9], 111.1 nM | 0.544 | –
[9], 333.3 nM | 0.513 | –
[9], 1000 nM | 5.6 | –
[9], 3000 nM | 0.728 | –
[10], 4.1 nM | 0.865 | –
[10], 12.3 nM | 0.469 | –
[10], 37 nM | 0.691 | –
[10], 111.1 nM | 0.704 | –
[10], 333.3 nM | 0.816 | –
[10], 1000 nM | 0.949 | –
[10], 3000 nM | 0.985 | –
[11], 4.1 nM | 0.978 | –
[11], 12.3 nM | 0.753 | –
[11], 37 nM | 0.669 | –
[11], 111.1 nM | 0.8 | –
[11], 333.3 nM | 0.886 | –
[11], 1000 nM | 0.675 | –
[11], 3000 nM | 1.09 | –
[12], 4.1 nM | 1.01 | –
[12], 12.3 nM | 0.813 | –
[12], 37 nM | 0.864 | –
[12], 111.1 nM | 0.823 | –
[12], 333.3 nM | 0.782 | –
[12], 1000 nM | 0.776 | –
[12], 3000 nM | 0.735 | –
[13], 4.1 nM | 1.13 | –
[13], 12.3 nM | 1.12 | –
[13], 37 nM | 1.06 | –
[13], 111.1 nM | 0.721 | –
[13], 333.3 nM | 0.996 | –
[13], 1000 nM | 0.59 | –
[13], 3000 nM | 0.683 | –
[14], 4.1 nM | 0.888 | –
[14], 12.3 nM | 0.449 | –
[14], 37 nM | 0.462 | –
[14], 111.1 nM | 0.363 | –
[14], 333.3 nM | 0.62 | –
[14], 1000 nM | 0.655 | –
[14], 3000 nM | 0.745 | –
